Data on one molecule can be found in patent US7658943B2, “Oral pharmaceutical composition for soft capsules containing vinorelbine and method of treatment” (R.P. Scherer Technologies, LLC, priority 2002, dated 2010).

Data set [1] in a line: Storage stability: impurity content by HPLC. The class given is physicochemical. The conditions noted are these: 5° C.±3° C. The method, then: The HPLC chromatographic method used included an assembly fitted with an automatic injector and variable wavelength UV detector set at 267 nm. The column was stainless steel with a length of 150 mm and diameter of 3.9 mm and filled with octadecylsilyl silica gel—300 Å—spherical, 5 μm. The mobile phase was carried out with sodium decanesulfonate (1.2217 g), phosphate buffer 0.05 M (pH=4.2) 380 ml, and methanol (620 ml), with a thermostatically-controlled column temperature of +40° C. and a mobile phase flow rate of 1 ml/min.
Each batch was stored over the analysis time at 5° C.±3° C.

The conditions of data set [2]: 5° C.±3° C., aqueous vinorelbine 10 mg/ml as base.
Procedure: In this experiment, pure powder form vinorelbine was compared to soft capsule encapsulated vinorelbine liquid fill composition of the invention (Formula 1.). Coloration was measured at 5° C.±3° C. by ultraviolet absorbance at 420 nm of aqueous vinorelbine at 10 mg/ml expressed as vinorelbine base. […] Mean variation was calculated as from the difference between the average of the results at the per given analysis time and the average of the results at the initial time (t0) for several batches (3 batches for the vinorelbine powder, 3 batches for the 20 mg soft capsules, 4 batches for the 30 mg soft capsules, 3 batches for the 40 mg soft capsules, 3 batches for the 80 mg soft capsules.)

Where two headings read alike, the source gives them in different places.

For `CCC1=C[C@@H]2CN(C1)Cc1c([nH]c3ccccc13)[C@@](C(=O)OC)(c1cc3c(cc1OC)N(C)[C@H]1[C@@](O)(C(=O)OC)[C@H](OC(C)=O)[C@]4(CC)C=CCN5CC[C@]31[C@@H]54)C2` [Vinorelbine (powder), 3′,4′-didehydro-4′-deoxy-C′-norvincaleucoblastine], the “Impurity content, max. variation (t0→analysis time)” value stood at 0.21 Relative Area Percent in data set [1] (6 months), 0.44 Relative Area Percent in data set [1] (12 months), 0.85 Relative Area Percent in data set [1] (18 months) and 1.32 Relative Area Percent in data set [1] (24 months). In addition, the “Impurity content, mean variation (t0→analysis time)” value is listed as 0.12 Relative Area Percent in data set [1] (6 months), 0.39 Relative Area Percent in data set [1] (12 months), 0.78 Relative Area Percent in data set [1] (18 months) and 1.13 Relative Area Percent in data set [1] (24 months). Moreover, the “Color evolution (absorbance at 420 nm), max. variation (t0→analysis time)” value in data set [2] (6 months) was determined as 0.012; in data set [2] (12 months), 0.015; in data set [2] (18 months), 0.025; in data set [2] (24 months), 0.041. The “Color evolution (absorbance at 420 nm), mean variation (t0→analysis time)” value in data set [2] (6 months) was found to be 0.006; in data set [2] (12 months), 0.013; in data set [2] (18 months), 0.017; in data set [2] (24 months) it was 0.029.
